Consider two molecules from PMC9728921, “Characterization of a KDM5 small molecule inhibitor with antiviral activity against hepatitis B virus” (PLOS ONE, 2022).

“Also recorded” adds a separate entry of the source.

As usually defined, the IC50 is the concentration at which inhibition is half-maximal.

The target in one series is KDM6A (Homo sapiens, UniProt O15550). Description: KDM6A enzymatic assay (AlphaLISA). It counts as biochemical. As for the experimental part: (§1) The following assay protocol was used for all histone demethylases tested except KDM1A, KDM5A, B, and D, which are described below. Compounds were serially diluted into a 384-well Alpha plate as a DMSO solution and mixed with 5 μL reaction buffer (buffer A) containing 50 mM HEPES (pH 7.0), 0.1% BSA, and 0.003% Tween-20. The enzyme of interest was pre-incubated with 15 μM of Fe^2+ for 10 min (except 30 min for KDM2B) in reaction buffer A. 5 μL of the enzyme mixture was added to each of the compound-containing wells and incubated for 10 min. The reaction was started by addition of a 5 μL mixture containing 300 nM peptide substrate, 75 μM L-ascorbic acid, and 30 μM α-ketoglutarate in buffer A. This final 15 μL of reaction mixture was incubated for 20 min for KDM5B and 1 hour for the other KDM enzymes. The reaction was quenched with 10 μL of diluted AlphaLISA Acceptor beads (1:400) in Epigenetics Buffer and incubated for 60 min. The Donor beads were diluted 1:400 into Epigenetics Buffer in the dark and 10 μL of this was added to each well and incubated for another 60 min in the dark. The assay plates were read on an Enspire plate reader (PerkinElmer) using a standard AlphaLISA program.
(§2) Data was analyzed using GraphPad Prism 6.0 (La Jolla, CA). […] IC50 values were calculated as an average of at least two independent experiments.

A short description of series [1]: Liver to plasma AUC ratio, rat. It counts as in vivo, Sprague Dawley rats. The settings on record: male, Sprague Dawley, liver and plasma, po, 1 mg/kg, read-out: GS-080 liver to plasma AUC ratio. As for the experimental part: Rats and monkeys were dosed by oral gavage once with 1 mg/kg or 2.5 mg/kg, respectively. The rat study included a vehicle control group (water). Serial venous blood samples were taken at 0, 0.25, 0.5, 1, 2, 4, 6, 8, 12, and 24 hours post dose from each animal and collected into vacutainer tubes containing potassium oxalate/sodium fluoride (Thermo Fisher; BD367925) as the anti-coagulant and blood was centrifuged for plasma isolation. […] For monkey, liver samples were taken by biopsy at pre-dose, 1, 4, 24, 48, and 72 hours post dose (n = 2 per time point). Rat and monkey livers were weighed and immediately flash frozen in liquid nitrogen.
500 μL of cold HPLC grade water was added to each monkey liver biopsy sample and rat liver samples were diluted 3-fold with cold HPLC grade water. Diluted liver samples were homogenized between 1 and 3 minutes. 50 μL of plasma samples and homogenized liver samples were quenched with 200 μL of 0.05% formic acid in acetonitrile. […] An Agilent 1200 series binary pump (Santa Clara, CA; G1312A) was used for elution and separation of compounds with a Hypersil Gold C18 HPLC column (Thermo Fisher; 50 x 3.0 mm, 5 μm) over 6.75 minutes with 99–3% gradient of Mobile Phase A (1% acetonitrile in 2.5 mM ammonium formate aqueous solution pH 2.6) and 1–97% gradient Mobile Phase B (90% acetonitrile in aqueous 10 mM ammonium formate pH 6.8).

The next series concerns the target T1, NSD3 (Homo sapiens, UniProt Q9BZ95).
T1 construct: 1021-1322; purchased RBC (read as Reaction Biology Corporation, named)
Description: Histone methyltransferase enzymatic assay, NSD3. Particulars: enzyme conc. 100 nM. The format is biochemical. The procedure:
(§3) Histone methyltransferase assays were performed in 96-well half-area optiplates (PerkinElmer) at room temperature. All concentrations are final unless noted otherwise. Compounds were serially diluted in DMSO and the final DMSO concentration was 1%. A 24 μL reaction mixture contained compound, enzyme, 200 nM of nucleosome or histone substrate, 400 nM ^3H-SAM (83.1 Ci/mmol), 50 mM Tris-HCl (pH 8.0), 50 mM NaCl, 5 mM MgCl2, 1 mM DTT, and 0.01% Tween-20. The plate was sealed, mixed on a Titramax plate shaker at 1200 rpm for 30 sec, and incubated at room temperature for 60 min. The reaction was quenched by addition of 24 μL mixture containing 5 mg/mL PVT-PEI beads and 300 μM unlabeled SAM in water. The plate was sealed, mixed as previously noted, incubated overnight, and read on a TopCount plate reader (PerkinElmer).
as §2

The target of a further series is KDM5C (Homo sapiens, UniProt P41229). Put plainly: KDM5C enzymatic assay (AlphaLISA). It counts as biochemical. The procedure: as §1, §2
A general note: Bead proximity is the source of the signal in Alpha formats.

For a further series, the target named is T2, NSD2 (Homo sapiens, UniProt O96028).
T2 construct: Full Length; purchased RBC (read as Reaction Biology Corporation, named)
Put plainly: Histone methyltransferase enzymatic assay, NSD2. The settings on record: enzyme conc. 10 nM. The format is biochemical. The procedure: as §3, §2

Another series addresses T3, EZH2/EED/SUZ12 (Homo sapiens, UniProt O75530+Q15022+Q15910).
T3 construct: 2-746/2-441/2-739; purchased BPS
Description: Histone methyltransferase enzymatic assay, EZH2/EED/SUZ12. It counts as biochemical. The settings on record: enzyme conc. 100 nM. The procedure: as §3, §2

Another series has as its target T4, KDM5A (Homo sapiens, UniProt P29375).
T4 construct: purchased Reaction Biology Corp (assay run there as a contract service)
Put plainly: KDM5A enzymatic assay (CisBio HTRF). It counts as biochemical. As for the experimental part:
KDM5A and 5B were tested using CisBio HTRF assay platform by Reaction Biology Corp (Malvern, PA). All concentrations are final unless noted otherwise. Inhibitors were pre-incubated with 2.5 nM KDM5A or 1.2 nM KDM5B in a 5 μL reaction mixture containing 50 mM HEPES (pH 7.5), 50 mM NaCl, 0.01% Tween 20, 0.01% BSA for 15 min temperature. The reaction was initiated by addition of 5 μL of 50 nM Biotin-H3K4me3 and incubated with gentle shaking for 45 min at RT. The reaction was quenched with 10 mM EDTA and 200 mM potassium fluoride. Upon addition of Eu-Antibody and Streptavidine-XL665, the mixture was incubated for 2 hours in the dark. The fluorescence resonance energy transfer was measured using an excitation wavelength of 320 nm and emission wavelength of 665 nm on an Envision plate reader (Perkin Elmer).
as §2
(Time-resolved FRET reads energy transfer from a long-lived donor to a nearby acceptor.)

The test system of another series is HBV cccDNA. Description: cccDNA levels by Southern blot in HBV-infected PHH. The settings on record: 1 or 10 µM every three to four days for 14 days. It counts as cell-based, Hepatitis B virus. As for the experimental part: PHH were plated in 24-well plates at 350,000–400,000 live cells per well and infected with HBV genotype D as described above. […] DNA was isolated from PHH using a MasterPure Complete DNA Purification kit (Epicentre, Madison, WI; MC85200) according to the manufacturer’s instructions, but omitting ProteinaseK or RNaseA treatment. After isolation, DNA was treated with T5 exonuclease (New England Biolabs, Ipswich, MA; M0363S) according to the manufacturer’s instructions.
cccDNA and host mitochondrial DNA (ND4) levels were examined by Southern blot using branched DNA signal amplification (bDNA) method as previously described. All probes and reagents were purchased from Thermo Fisher Scientific.
PHH were infected with HBV for three days prior to initiation of GS-5801 treatment. […] Total DNA was isolated, treated with T5 exonuclease to reduce levels of relaxed circular HBV DNA (rcDNA), and probed for cccDNA and mitochondrial DNA (Mt ND4: NADH-ubiquinone oxidoreductase chain 4) by Southern blot.

T4 sequence (P29375 whole entry): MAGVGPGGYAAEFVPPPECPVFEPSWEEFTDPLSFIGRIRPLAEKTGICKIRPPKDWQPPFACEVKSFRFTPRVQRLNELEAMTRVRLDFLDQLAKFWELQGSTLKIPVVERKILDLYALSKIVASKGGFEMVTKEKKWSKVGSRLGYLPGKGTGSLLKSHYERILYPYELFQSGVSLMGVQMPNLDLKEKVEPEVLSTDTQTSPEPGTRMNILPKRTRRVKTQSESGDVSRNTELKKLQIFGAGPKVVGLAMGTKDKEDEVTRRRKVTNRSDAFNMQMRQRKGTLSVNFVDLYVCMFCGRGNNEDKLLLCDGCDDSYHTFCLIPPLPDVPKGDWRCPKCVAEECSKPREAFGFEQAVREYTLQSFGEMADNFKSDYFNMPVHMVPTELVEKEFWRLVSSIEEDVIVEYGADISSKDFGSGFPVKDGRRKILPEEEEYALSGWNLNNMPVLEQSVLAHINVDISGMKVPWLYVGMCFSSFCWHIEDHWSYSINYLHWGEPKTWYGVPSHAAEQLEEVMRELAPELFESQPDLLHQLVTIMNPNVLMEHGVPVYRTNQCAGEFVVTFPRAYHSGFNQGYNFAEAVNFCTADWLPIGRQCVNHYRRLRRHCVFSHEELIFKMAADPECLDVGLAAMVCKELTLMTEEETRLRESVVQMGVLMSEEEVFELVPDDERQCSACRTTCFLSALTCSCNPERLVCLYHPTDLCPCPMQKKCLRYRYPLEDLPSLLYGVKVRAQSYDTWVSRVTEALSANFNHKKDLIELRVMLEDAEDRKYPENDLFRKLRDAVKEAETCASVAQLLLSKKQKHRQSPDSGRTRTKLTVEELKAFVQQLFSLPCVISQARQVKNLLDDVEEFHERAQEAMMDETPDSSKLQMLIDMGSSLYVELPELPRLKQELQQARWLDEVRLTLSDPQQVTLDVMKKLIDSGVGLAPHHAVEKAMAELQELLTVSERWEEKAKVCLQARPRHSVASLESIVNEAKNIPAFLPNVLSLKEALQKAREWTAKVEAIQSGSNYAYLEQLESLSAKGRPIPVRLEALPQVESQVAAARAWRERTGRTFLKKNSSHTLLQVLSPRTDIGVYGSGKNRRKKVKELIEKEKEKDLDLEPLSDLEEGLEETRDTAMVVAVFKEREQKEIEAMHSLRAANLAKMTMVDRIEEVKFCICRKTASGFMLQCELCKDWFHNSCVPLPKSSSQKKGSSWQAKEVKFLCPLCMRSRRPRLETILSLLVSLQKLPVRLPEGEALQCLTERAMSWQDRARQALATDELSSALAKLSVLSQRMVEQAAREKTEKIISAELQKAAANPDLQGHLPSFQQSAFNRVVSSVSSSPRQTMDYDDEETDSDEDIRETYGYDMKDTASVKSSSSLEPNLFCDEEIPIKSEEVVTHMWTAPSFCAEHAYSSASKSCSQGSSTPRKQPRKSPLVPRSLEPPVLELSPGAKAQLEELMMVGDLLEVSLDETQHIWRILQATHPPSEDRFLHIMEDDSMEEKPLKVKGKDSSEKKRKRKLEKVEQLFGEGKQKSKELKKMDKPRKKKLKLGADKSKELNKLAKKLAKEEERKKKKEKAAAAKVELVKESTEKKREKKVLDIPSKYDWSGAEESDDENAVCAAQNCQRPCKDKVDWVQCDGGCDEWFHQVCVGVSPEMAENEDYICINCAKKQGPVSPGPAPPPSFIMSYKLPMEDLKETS
Chain of KDM5C (P41229 whole entry): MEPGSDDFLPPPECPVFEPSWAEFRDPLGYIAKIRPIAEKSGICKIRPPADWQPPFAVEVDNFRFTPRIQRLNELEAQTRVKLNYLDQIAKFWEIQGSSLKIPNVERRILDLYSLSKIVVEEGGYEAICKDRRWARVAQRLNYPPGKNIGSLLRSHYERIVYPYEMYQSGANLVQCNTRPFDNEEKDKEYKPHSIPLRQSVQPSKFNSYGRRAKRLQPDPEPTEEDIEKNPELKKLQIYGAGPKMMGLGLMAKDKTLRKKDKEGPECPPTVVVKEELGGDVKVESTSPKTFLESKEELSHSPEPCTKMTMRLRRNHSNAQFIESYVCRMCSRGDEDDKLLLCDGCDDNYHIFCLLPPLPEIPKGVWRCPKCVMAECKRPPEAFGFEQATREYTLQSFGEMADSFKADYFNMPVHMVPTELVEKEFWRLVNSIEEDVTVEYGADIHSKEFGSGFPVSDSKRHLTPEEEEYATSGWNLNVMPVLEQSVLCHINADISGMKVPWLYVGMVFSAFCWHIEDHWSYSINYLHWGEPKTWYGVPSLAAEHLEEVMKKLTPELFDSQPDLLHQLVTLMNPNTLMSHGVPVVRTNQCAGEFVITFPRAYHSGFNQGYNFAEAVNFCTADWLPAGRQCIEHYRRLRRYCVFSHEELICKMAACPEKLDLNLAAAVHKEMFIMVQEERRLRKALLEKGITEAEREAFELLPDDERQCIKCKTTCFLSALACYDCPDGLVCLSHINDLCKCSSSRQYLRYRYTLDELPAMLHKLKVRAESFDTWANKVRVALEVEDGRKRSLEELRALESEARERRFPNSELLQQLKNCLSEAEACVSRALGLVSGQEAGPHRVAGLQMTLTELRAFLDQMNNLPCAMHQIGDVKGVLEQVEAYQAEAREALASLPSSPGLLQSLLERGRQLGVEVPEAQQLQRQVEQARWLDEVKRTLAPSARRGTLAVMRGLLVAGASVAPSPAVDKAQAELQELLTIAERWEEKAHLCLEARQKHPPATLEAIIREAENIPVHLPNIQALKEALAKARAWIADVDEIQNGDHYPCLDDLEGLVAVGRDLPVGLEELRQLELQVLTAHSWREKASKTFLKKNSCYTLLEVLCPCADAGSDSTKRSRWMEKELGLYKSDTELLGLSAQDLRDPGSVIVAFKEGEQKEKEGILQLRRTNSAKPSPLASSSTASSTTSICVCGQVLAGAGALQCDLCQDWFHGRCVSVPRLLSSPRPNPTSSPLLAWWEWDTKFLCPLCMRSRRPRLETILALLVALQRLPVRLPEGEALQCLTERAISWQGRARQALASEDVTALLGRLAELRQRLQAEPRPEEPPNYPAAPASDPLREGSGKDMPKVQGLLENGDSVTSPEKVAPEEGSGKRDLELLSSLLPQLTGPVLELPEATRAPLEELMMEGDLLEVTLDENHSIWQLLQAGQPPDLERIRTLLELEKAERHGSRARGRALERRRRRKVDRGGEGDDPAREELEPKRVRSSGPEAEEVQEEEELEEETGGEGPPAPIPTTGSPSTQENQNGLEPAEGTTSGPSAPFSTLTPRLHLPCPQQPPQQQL
Chain of KDM6A (O15550 whole entry): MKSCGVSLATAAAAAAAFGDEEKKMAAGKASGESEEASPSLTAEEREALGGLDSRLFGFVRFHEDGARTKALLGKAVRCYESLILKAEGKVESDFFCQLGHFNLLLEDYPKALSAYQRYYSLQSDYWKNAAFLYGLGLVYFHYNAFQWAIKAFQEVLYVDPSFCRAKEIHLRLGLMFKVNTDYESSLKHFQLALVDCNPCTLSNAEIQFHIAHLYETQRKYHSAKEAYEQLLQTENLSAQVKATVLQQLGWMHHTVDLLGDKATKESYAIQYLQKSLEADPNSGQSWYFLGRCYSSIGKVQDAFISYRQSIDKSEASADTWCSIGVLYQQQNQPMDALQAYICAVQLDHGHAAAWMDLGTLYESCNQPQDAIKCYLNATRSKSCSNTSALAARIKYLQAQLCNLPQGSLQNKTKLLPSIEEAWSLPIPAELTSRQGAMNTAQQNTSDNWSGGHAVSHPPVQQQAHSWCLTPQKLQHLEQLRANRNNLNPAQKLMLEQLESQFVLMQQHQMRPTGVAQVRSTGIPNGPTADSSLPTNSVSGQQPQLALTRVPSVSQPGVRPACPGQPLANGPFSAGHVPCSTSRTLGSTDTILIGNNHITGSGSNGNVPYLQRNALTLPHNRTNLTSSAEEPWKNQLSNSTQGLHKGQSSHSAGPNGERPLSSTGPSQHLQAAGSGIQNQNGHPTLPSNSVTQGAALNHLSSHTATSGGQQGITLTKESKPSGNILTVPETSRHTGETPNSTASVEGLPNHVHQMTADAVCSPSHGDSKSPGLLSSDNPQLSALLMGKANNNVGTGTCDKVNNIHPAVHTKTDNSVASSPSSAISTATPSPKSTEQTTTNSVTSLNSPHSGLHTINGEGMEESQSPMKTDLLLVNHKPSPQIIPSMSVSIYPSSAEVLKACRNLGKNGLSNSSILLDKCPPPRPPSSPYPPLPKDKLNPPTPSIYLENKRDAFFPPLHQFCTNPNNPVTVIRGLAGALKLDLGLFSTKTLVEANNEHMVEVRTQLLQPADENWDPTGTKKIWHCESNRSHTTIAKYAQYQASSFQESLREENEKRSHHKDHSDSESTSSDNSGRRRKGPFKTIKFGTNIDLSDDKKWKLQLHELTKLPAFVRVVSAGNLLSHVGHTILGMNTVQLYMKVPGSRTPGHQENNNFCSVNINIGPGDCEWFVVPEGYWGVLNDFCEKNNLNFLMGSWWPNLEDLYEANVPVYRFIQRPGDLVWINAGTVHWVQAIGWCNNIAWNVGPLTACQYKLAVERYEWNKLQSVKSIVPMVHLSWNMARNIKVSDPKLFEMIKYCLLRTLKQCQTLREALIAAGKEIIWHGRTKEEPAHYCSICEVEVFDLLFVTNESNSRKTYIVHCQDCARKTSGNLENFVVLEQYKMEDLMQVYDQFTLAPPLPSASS
T1 sequence (Q9BZ95 1021-1322): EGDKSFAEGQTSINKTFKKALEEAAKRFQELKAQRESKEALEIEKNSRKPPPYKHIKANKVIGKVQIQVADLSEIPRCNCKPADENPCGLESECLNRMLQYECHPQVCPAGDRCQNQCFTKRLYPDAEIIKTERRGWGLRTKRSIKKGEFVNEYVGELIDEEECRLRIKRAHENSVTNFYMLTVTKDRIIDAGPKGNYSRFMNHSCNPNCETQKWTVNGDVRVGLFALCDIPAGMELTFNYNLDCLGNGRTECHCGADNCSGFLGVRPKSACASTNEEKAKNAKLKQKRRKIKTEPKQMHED

For `CCN(CCN(C)C)C(=O)CNCc1cc(C(=O)O)ccn1` [GS-080], the “Fold Selectivity Compared to KDM5A” value at KDM6A (IC50 of KDM6A over KDM5A) is > 17,200 fold; at KDM5C (IC50 of KDM5C over KDM5A), 10 fold; on KDM5A (IC50 of KDM5A over KDM5A), 1 fold. Moreover, the IC50 against KDM6A (enzyme concentration 2 nM) is 6.2 µM; on NSD3, greater than 100 µM; against KDM5C (enzyme concentration 1 nM), 0.0037 µM; against NSD2, greater than 100 µM; at EZH2/EED/SUZ12, greater than 100 µM; on KDM5A (enzyme concentration 2.5 nM, IC50 lower than enzyme concentration, likely underestimates potency) it was 0.00036 µM. Moreover, the Kp in series [1] stood at 44.

As to `CCOC(=O)c1ccnc(CNCC(=O)N(CC)CCN(C)C)c1` [GS-5801], in the series with HBV cccDNA, the “levels of cccDNA” value is “did not alter levels of cccDNA; also recorded: does not reduce levels of cccDNA; also recorded: no sign of reduced cccDNA”.
